Laboratory results from ChEMBL document CHEMBL1155957, “A novel peptide from alpha5 helix of Asterina pectinifera cyclin B conjugated to HIV-Tat(49-57) with cytotoxic and apoptotic effects against human cancer cells” (2008).
Calls of active or inactive are those of the source. No cut-off for these calls is given here.

Legend:
HCT-116 [1] = assay: Induction of apoptosis in human HCT116 cells assessed as morphological changes at 100 uM after 24 hrs; type: functional, cell-based
EC9706 [2] = assay: (§1) Antiproliferative activity against human EC9706 cells at 100 uM for 24 hrs by MTT assay; type: functional
EC9706 [3] = assay: Induction of apoptosis in human EC9706 cells assessed as morphological changes at 100 uM after 24 hrs; type: functional, cell-based
HCT-116 [4] = assay: Antiproliferative activity against human HCT116 cells at 30 uM for 24 hrs by MTT assay; type: functional
[5] = Cell cycle arrest in human EC9706 cells assessed as accumulation in G2/M phase at 30 uM after 12 hrs; type: functional, cell-based
[6] = Cell cycle arrest in human EC9706 cells assessed as accumulation in G2/M phase at 30 uM after 18 hrs; type: functional, cell-based
EC9706 [7] = assay: (§2) Antiproliferative activity against human EC9706 cells at 75 uM for 24 hrs by MTT assay; type: functional
HCT-116 [8] = assay: Antiproliferative activity against human HCT116 cells at 100 uM for 24 hrs by MTT assay; type: functional
HCT-116 [9] = assay: Induction of apoptosis in human HCT116 cells assessed as increase in cell debris at 30 uM after 18 hrs; type: functional, cell-based
[10] = as §1; type: functional
HCT-116 [11] = assay: Cell cycle arrest in human HCT116 cells assessed as accumulation in G2/M phase at 30 uM after 12 hrs; type: functional, cell-based
[12] = as §2; type: functional

| Compound | Activity (HCT-116 [1]) | Activity (EC9706 [2]) | Activity (EC9706 [3]) | Activity (HCT-116 [4]) | Activity [5] | Activity [6] | Activity (EC9706 [7]) | Activity (HCT-116 [8]) | Activity (HCT-116 [9]) | Activity [10] [%] | Activity (HCT-116 [11]) | Activity [12] [%] |
| --- | --- | --- | --- | --- | --- | --- | --- | --- | --- | --- | --- | --- |
| N=C(N)NCCC[C@H](NC(=O)[C@H](CCCNC(=N)N)NC(=O)[C@H](CCCNC(=N)N)NC(=O)[C@H](CCC(N)=O)NC(=O)[C@H](CCCNC(=N)N)NC(=O)[C@H](CCCNC(=N)N)NC(=O)[C@H](CCCCN)NC(=O)[C@H](CCCCN)NC(=O)[C@@H](N)CCCNC(=N)N)C(=O)O | inactive | inactive | inactive | inactive | inactive | inactive | inactive | inactive |  |  |  |  |
| H-KAQIRAMECNIL-OH |  | inactive |  | inactive |  |  | inactive | inactive |  |  |  |  |
| H-KAQIRAMECNILGRKKRRQRRR-OH | Active |  | Active | 55% | Active | Active |  | 16% | Active | 52 | Active | 69 |
